{"source": "patent US7985072B2", "about": "“Method and apparatus for tooth rejuvenation and hard tissue modification” (Rejuvedent LLC, priority 2005, dated 2011)", "key": {"[1]": {"assay": "Comparison of edible acids as bleaching agents for removal of stains in enamel", "conditions": "low pH (<2.5), intact enamel", "experimental": "The ability of an aqueous acidic solution to deconstruct and dissolve both organic and inorganic components depends on the period of time, pH, concentration, and temperature at which the process occurs. The color of the enamel after stain removal and bleaching is determined by how closely the structure after etching matches the natural structure and how well light is scattered from the surface of the tooth. Remineralization is however, a slow process, so caution in carrying out the procedure is recommended, and it is desirable to protect the new surface with a hard material. To achieve this, the present invention proposes the use of a high concentration of acid to minimize the time of treatment. For a high concentration of acid to be used safely within the oral cavity, two fundamental safety concerns need to be addressed: firstly toxicity and secondly soft tissue damage. To completely eliminate the toxicity problem, especially for home use, we propose the use of an edible acid which is non-toxic when ingested. The volume of acid for any application in the present invention is limited to several cubic centimeters. After dissolution in saliva the concentration of the acid ingested will drop, and the pH will increase, which is typical for foodstuffs. A typical pH for food acids is 2.5 or more. We have studied the effect of a low pH (<2.5) edible acid on intact enamel. […]"}, "[2]": {"assay": "Depth of the etched (porous) enamel layer with aqueous citric acid solution, parameters of equation (1)", "source_text": "The inventors conducted a series of tests to determine the optimal pH, temperature and time for tooth rejuvenation, and for designing various devices for the tooth rejuvenation procedure. […] The enamel surface is not homogeneous, it contains inorganic components, such as hydroxyapatite, in the form of crystals oriented towards its surface. The enamel surface also contains organic components, such as proteins. When the organic and inorganic components are exposed to an aqueous acid solution, such exposure leads to the deconstruction and removal of these components to a certain depth into the enamel, forming a superficial porous layer. Stains, bacteria and the weak components of the enamel are removed from the porous layer, bleached or destroyed by the acid. Exposure time, pH and the concentration and temperature of the solution all affect the depth of tissue treatment and structure of surface after treatment. The removal and bleaching of the organic component is important because this component contains the most pigment. The organic component is however, tightly bound to the inorganic component, which occurs during tooth formation and is not affected by factors such as frequency of tooth brushing, or the type of toothpaste used. Because of this, bleaching removes both the organic and the bonded inorganic components.\nThe ability of an aqueous acidic solution to deconstruct and dissolve both organic and inorganic components depends on the period of time, pH, concentration, and temperature at which the process occurs. The color of the enamel after stain removal and bleaching is determined by how closely the structure after etching matches the natural structure and how well light is scattered from the surface of the tooth. Remineralization is however, a slow process, so caution in carrying out the procedure is recommended, and it is desirable to protect the new surface with a hard material. To achieve this, the present invention proposes the use of a high concentration of acid to minimize the time of treatment. For a high concentration of acid to be used safely within the oral cavity, two fundamental safety concerns need to be addressed: firstly toxicity and secondly soft tissue damage. To completely eliminate the toxicity problem, especially for home use, we propose the use of an edible acid which is non-toxic when ingested. The volume of acid for any application in the present invention is limited to several cubic centimeters. After dissolution in saliva the concentration of the acid ingested will drop, and the pH will increase, which is typical for foodstuffs. A typical pH for food acids is 2.5 or more. We have studied the effect of a low pH (<2.5) edible acid on intact enamel.\nThe temperature of the acid is another parameter to be optimized for enamel etching when using a high concentration of acid. An increase in temperature increases the depth of etching due to two factors: first, it increases the diffusion coefficient and, second, the rate of the chemical reaction between the acid and the enamel due to Arrenius law. […] These graphs can be described by the following formula: […]\nHere, hw is the depth of the porous layer of enamel in μm after t min of etching as a function of t. Parameters cc, ct, and D can be the functions of both temperature T and pH.\nThe parameters α, cc, and D were found using the best square fit."}, "[3]": {"test_system": "premolar teeth of a subject", "assay": "Example 1: in-office tooth whitening treatment"}}, "data": [{"compound": "O=C(O)CC(O)(CC(=O)O)C(=O)O", "note": "[citric acid]", "values": [{"measurement": "effectiveness among edible acids (lactic, malic, tartaric, oxalic acid)", "setting": "[1]", "value": "most effective"}, {"measurement": "etched depth of the tooth enamel", "setting": "[2]; 50° C., pH=1.5, from the presented graphs (exposure time 10 min)", "value": 40, "unit": "μm"}, {"measurement": "D, parameter of equation (1), thickness of porous (etched) layer of enamel", "setting": "[2]; T = 50° C., pH 1", "value": 94.035, "unit": "μm^2/min"}, {"measurement": "α1, parameter of equation (1), thickness of porous (etched) layer of enamel", "setting": "[2]; T = 50° C., pH 1", "value": 1.069, "unit": "μm/min"}, {"measurement": "α, parameter of equation (1), thickness of porous (etched) layer of enamel", "setting": "[2]; T = 50° C., pH 1", "value": 3.195, "unit": "μm/min"}, {"measurement": "D, parameter of equation (1), thickness of porous (etched) layer of enamel", "setting": "[2]; T = 50° C., pH 2", "value": 4.646, "unit": "μm^2/min"}, {"measurement": "α1, parameter of equation (1), thickness of porous (etched) layer of enamel", "setting": "[2]; T = 50° C., pH 2", "value": 0.559, "unit": "μm/min"}, {"measurement": "α, parameter of equation (1), thickness of porous (etched) layer of enamel", "setting": "[2]; T = 50° C., pH 2", "value": 1.022, "unit": "μm/min"}, {"measurement": "α1, parameter of equation (1), thickness of porous (etched) layer of enamel", "setting": "[2]; T = 50° C., pH 2.5", "value": "−0.018", "unit": "μm/min"}, {"measurement": "α, parameter of equation (1), thickness of porous (etched) layer of enamel", "setting": "[2]; T = 50° C., pH 2.5", "value": 0.211, "unit": "μm/min"}, {"measurement": "D, parameter of equation (1), thickness of porous (etched) layer of enamel", "setting": "[2]; pH = 1.5, 20 °C", "value": 2.604, "unit": "μm^2/min"}, {"measurement": "α1, parameter of equation (1), thickness of porous (etched) layer of enamel", "setting": "[2]; pH = 1.5, 20 °C", "value": 0.158, "unit": "μm/min"}, {"measurement": "α, parameter of equation (1), thickness of porous (etched) layer of enamel", "setting": "[2]; pH = 1.5, 20 °C", "value": 0.524, "unit": "μm/min"}, {"measurement": "D, parameter of equation (1), thickness of porous (etched) layer of enamel", "setting": "[2]; pH = 1.5, 37 °C", "value": 23.124, "unit": "μm^2/min"}, {"measurement": "α1, parameter of equation (1), thickness of porous (etched) layer of enamel", "setting": "[2]; pH = 1.5, 37 °C", "value": 0.515, "unit": "μm/min"}, {"measurement": "α, parameter of equation (1), thickness of porous (etched) layer of enamel", "setting": "[2]; pH = 1.5, 37 °C", "value": 1.751, "unit": "μm/min"}, {"measurement": "D, parameter of equation (1), thickness of porous (etched) layer of enamel", "setting": "[2]; pH = 1.5, 40 °C", "value": 36.801, "unit": "μm^2/min"}, {"measurement": "α1, parameter of equation (1), thickness of porous (etched) layer of enamel", "setting": "[2]; pH = 1.5, 40 °C", "value": 0.469, "unit": "μm/min"}, {"measurement": "α, parameter of equation (1), thickness of porous (etched) layer of enamel", "setting": "[2]; pH = 1.5, 40 °C", "value": 1.921, "unit": "μm/min"}, {"measurement": "D, parameter of equation (1), thickness of porous (etched) layer of enamel", "setting": "[2]; pH = 1.5, 45 °C", "value": 74.738, "unit": "μm^2/min"}, {"measurement": "α1, parameter of equation (1), thickness of porous (etched) layer of enamel", "setting": "[2]; pH = 1.5, 45 °C", "value": 0.833, "unit": "μm/min"}, {"measurement": "α, parameter of equation (1), thickness of porous (etched) layer of enamel", "setting": "[2]; pH = 1.5, 45 °C", "value": 2.767, "unit": "μm/min"}, {"measurement": "D, parameter of equation (1), thickness of porous (etched) layer of enamel", "setting": "[2]; pH = 1.5, 50 °C", "value": 121.664, "unit": "μm^2/min"}, {"measurement": "α1, parameter of equation (1), thickness of porous (etched) layer of enamel", "setting": "[2]; pH = 1.5, 50 °C", "value": 1.31, "unit": "μm/min"}, {"measurement": "α, parameter of equation (1), thickness of porous (etched) layer of enamel", "setting": "[2]; pH = 1.5, 50 °C", "value": 3.755, "unit": "μm/min"}, {"measurement": "D, parameter of equation (1), thickness of porous (etched) layer of enamel", "setting": "[2]; pH = 1.5, 60 °C", "value": 122.528, "unit": "μm^2/min"}, {"measurement": "α1, parameter of equation (1), thickness of porous (etched) layer of enamel", "setting": "[2]; pH = 1.5, 60 °C", "value": 1.504, "unit": "μm/min"}, {"measurement": "α, parameter of equation (1), thickness of porous (etched) layer of enamel", "setting": "[2]; pH = 1.5, 60 °C", "value": 4.124, "unit": "μm/min"}, {"measurement": "change in gingival tissue and hypersensitivity", "setting": "[3]; after treatment or during follow up appointments", "value": "No change in gingival tissue and no hypersensitivity"}, {"measurement": "gloss of treatment side versus control side", "setting": "[3]; immediately after treatment", "value": "less glossy than the control side"}, {"measurement": "pain or discomfort throughout the treatment", "setting": "[3]; pH=1.5, average +50° C., 10 minutes", "value": "did not report any pain or discomfort"}]}]}
